# Tested on: 188146-221-R-J1-PDC complex spheroid viability
# Experiment: Anticancer human tumor 188146-221-R-J1-PDC patient-derived colon adenocarcinoma cell line growth inhibition [POLQ]
# Conditions: for IC50: curve of first compound; for viability, T/C: stronger effect = lower value
# In short: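 PDC + HUVEC + MSC complex spheroids; POLQ inhibitors ± partner drugs; top conc. at/near clinical Cmax, else 10 microM (SN-38 1 microM), half-log dilutions; 37 degrees C, 5% CO2.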
# [1] = second compound 0.0316 µM, first compound 0.0316 µM
# [2] = second compound 0.0316 µM, first compound 0.1 µM
# [3] = second compound 0.0316 µM, first compound 0.316 µM
# [4] = second compound 0.0316 µM, first compound 1 µM
# [5] = second compound 0.0316 µM, first compound 3.16 µM
# [6] = second compound 0.0316 µM, first compound 10 µM
# [7] = second compound 0.1 µM, first compound 0.0316 µM
# [8] = second compound 0.1 µM, first compound 0.1 µM
# [9] = second compound 0.1 µM, first compound 0.316 µM
# [10] = second compound 0.1 µM, first compound 1 µM
# [11] = second compound 0.1 µM, first compound 3.16 µM
# [12] = second compound 0.1 µM, first compound 10 µM
# [13] = second compound 0.316 µM, first compound 0.0316 µM
# [14] = second compound 0.316 µM, first compound 0.1 µM
# [15] = second compound 0.316 µM, first compound 0.316 µM
# [16] = second compound 0.316 µM, first compound 1 µM
# [17] = second compound 0.316 µM, first compound 3.16 µM
# [18] = second compound 0.316 µM, first compound 10 µM
# [19] = second compound 1 µM, first compound 0.0316 µM
# [20] = second compound 1 µM, first compound 0.1 µM
# [21] = second compound 1 µM, first compound 0.316 µM
# [22] = second compound 1 µM, first compound 1 µM
# [23] = second compound 1 µM, first compound 3.16 µM
# [24] = second compound 1 µM, first compound 10 µM
# [25] = second compound 3.16 µM, first compound 0.0316 µM
# [26] = second compound 3.16 µM, first compound 0.1 µM
# [27] = second compound 3.16 µM, first compound 0.316 µM
# [28] = second compound 3.16 µM, first compound 1 µM
# [29] = second compound 3.16 µM, first compound 3.16 µM
# [30] = second compound 3.16 µM, first compound 10 µM
# [31] = second compound 10 µM, first compound 0.0316 µM
# [32] = second compound 10 µM, first compound 0.1 µM
# [33] = second compound 10 µM, first compound 0.316 µM
# [34] = second compound 10 µM, first compound 1 µM
# [35] = second compound 10 µM, first compound 3.16 µM
# [36] = second compound 10 µM, first compound 10 µM
# 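Further: spheroids exposed to compounds for seven days.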
# 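Wherever viability, T/C is given: 100% = DMSO vehicle control viability.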
smiles,measurement,setting,value
O=c1[nH]cc(F)c(=O)[nH]1 + COC1C(OC(N)=O)C(O)C(Oc2ccc3c(O)c(NC(=O)c4ccc(O)c(CC=C(C)C)c4)c(=O)oc3c2C)OC1(C)C,IC50,second compound 0.0316 µM,1.01 µM
same,IC50,second compound 0.1 µM,1.24 µM
same,IC50,second compound 0.316 µM,0.925 µM
same,IC50,second compound 1 µM,0.984 µM
same,IC50,second compound 3.16 µM,1.79 µM
same,IC50,second compound 10 µM,1.5 µM
same,"viability, T/C",[1],107%
same,"viability, T/C",[2],106%
same,"viability, T/C",[3],72.7%
same,"viability, T/C",[4],53.1%
same,"viability, T/C",[5],39.8%
same,"viability, T/C",[6],34.9%
same,"viability, T/C",[7],95.2%
same,"viability, T/C",[8],102%
same,"viability, T/C",[9],75.4%
same,"viability, T/C",[10],53.7%
same,"viability, T/C",[11],41.4%
same,"viability, T/C",[12],35%
same,"viability, T/C",[13],95.8%
same,"viability, T/C",[14],98.5%
same,"viability, T/C",[15],75.4%
same,"viability, T/C",[16],49.3%
same,"viability, T/C",[17],37.6%
same,"viability, T/C",[18],36.6%
same,"viability, T/C",[19],111%
same,"viability, T/C",[20],101%
same,"viability, T/C",[21],72.4%
same,"viability, T/C",[22],49.6%
same,"viability, T/C",[23],43.8%
same,"viability, T/C",[24],36%
same,"viability, T/C",[25],102%
same,"viability, T/C",[26],92.3%
same,"viability, T/C",[27],76%
same,"viability, T/C",[28],52.1%
same,"viability, T/C",[29],49%
same,"viability, T/C",[30],41.3%
same,"viability, T/C",[31],97%
same,"viability, T/C",[32],90.2%
same,"viability, T/C",[33],80.7%
same,"viability, T/C",[34],53.3%
same,"viability, T/C",[35],43.2%
same,"viability, T/C",[36],40.6%
CC1COCCN1c1cc(C2(O)CC3CCC(C2)O3)c2cnn(-c3ccn[nH]3)c2n1 (stereo unspecified) + COC1C(OC(N)=O)C(O)C(Oc2ccc3c(O)c(NC(=O)c4ccc(O)c(CC=C(C)C)c4)c(=O)oc3c2C)OC1(C)C,IC50,second compound 0.0316 µM,0.295 µM
same,IC50,second compound 0.1 µM,0.428 µM
same,IC50,second compound 0.316 µM,0.425 µM
same,IC50,second compound 1 µM,0.425 µM
same,IC50,second compound 3.16 µM,0.299 µM
same,IC50,second compound 10 µM,0.195 µM
same,"viability, T/C",[1],93.4%
same,"viability, T/C",[2],68.8%
same,"viability, T/C",[3],53.1%
same,"viability, T/C",[4],25.5%
same,"viability, T/C",[5],18%
same,"viability, T/C",[6],9.03%
same,"viability, T/C",[7],94.5%
same,"viability, T/C",[8],78.5%
same,"viability, T/C",[9],56.9%
same,"viability, T/C",[10],30.9%
same,"viability, T/C",[11],21.2%
same,"viability, T/C",[12],8.19%
same,"viability, T/C",[13],94.7%
same,"viability, T/C",[14],74.1%
same,"viability, T/C",[15],57%
same,"viability, T/C",[16],35.4%
same,"viability, T/C",[17],17%
same,"viability, T/C",[18],9.09%
same,"viability, T/C",[19],93.8%
same,"viability, T/C",[20],79.3%
same,"viability, T/C",[21],57.2%
same,"viability, T/C",[22],30.6%
same,"viability, T/C",[23],17.5%
same,"viability, T/C",[24],9.21%
same,"viability, T/C",[25],82.1%
same,"viability, T/C",[26],67.2%
same,"viability, T/C",[27],51.3%
same,"viability, T/C",[28],26.3%
same,"viability, T/C",[29],14.9%
same,"viability, T/C",[30],8.05%
same,"viability, T/C",[31],90.5%
same,"viability, T/C",[32],62.4%
same,"viability, T/C",[33],41.8%
same,"viability, T/C",[34],22.8%
same,"viability, T/C",[35],19%
same,"viability, T/C",[36],7.81%
CC1COCCN1c1cc(C2(O)CC3CCC(C2)O3)c2cnn(-c3ccn[nH]3)c2n1 (stereo unspecified) + Cc1cccc(N(C)C(=O)C2C(O)CCN2c2nc(C)cc(C(F)(F)F)c2C#N)c1,IC50,second compound 0.0316 µM,0.422 µM
same,IC50,second compound 0.1 µM,0.322 µM
same,IC50,second compound 0.316 µM,0.365 µM
same,IC50,second compound 1 µM,0.426 µM
same,IC50,second compound 3.16 µM,0.259 µM
same,IC50,second compound 10 µM,0.19 µM
same,"viability, T/C",[1],83.2%
same,"viability, T/C",[2],67.8%
same,"viability, T/C",[3],61.5%
same,"viability, T/C",[4],27.6%
same,"viability, T/C",[5],19.2%
same,"viability, T/C",[6],7.58%
same,"viability, T/C",[7],95.3%
same,"viability, T/C",[8],75.7%
same,"viability, T/C",[9],51.1%
same,"viability, T/C",[10],26.6%
same,"viability, T/C",[11],16.8%
same,"viability, T/C",[12],7.79%
same,"viability, T/C",[13],91.9%
same,"viability, T/C",[14],80.2%
same,"viability, T/C",[15],52.4%
same,"viability, T/C",[16],27.4%
same,"viability, T/C",[17],17.4%
same,"viability, T/C",[18],9.2%
same,"viability, T/C",[19],89.2%
same,"viability, T/C",[20],71.9%
same,"viability, T/C",[21],56.1%
same,"viability, T/C",[22],36%
same,"viability, T/C",[23],19.2%
same,"viability, T/C",[24],7.67%
same,"viability, T/C",[25],94.8%
same,"viability, T/C",[26],68.4%
same,"viability, T/C",[27],46.4%
same,"viability, T/C",[28],27.3%
same,"viability, T/C",[29],22.8%
same,"viability, T/C",[30],8.6%
same,"viability, T/C",[31],80.7%
same,"viability, T/C",[32],60.3%
same,"viability, T/C",[33],43.4%
same,"viability, T/C",[34],24%
same,"viability, T/C",[35],23.9%
same,"viability, T/C",[36],9.35%
